Values of other authors as cited in patent publication US12564551B2, “Composition or oat extract comprising avenanthramide and β-glucan” (SYMRISE AG, priority 2020, dated 2026).

Settings: Avn C, followed by Avn B and Avn A

O=C(C=Cc1ccc(O)c(O)c1)Nc1ccc(O)cc1C(=O)O [Avn C, N-(3′,4′-dihydroxycinnamoyl)-5-hydroxyanthranilic acid]
antioxidant activity, rank among Avns (in words): highest activity
